The NIST ThermoML archive (doi:10.1021/je300737t)
Numbers after ± are expanded uncertainties.

What was measured:
[1] = xn = mol fraction of the nth substance listed; conditions: 101 kPa, Liquid; for mass density: Pycnometric method
[2] = 101 kPa, Liquid; for mass density: Pycnometric method

Work on `CCCCOCCO` [2-butoxyethan-1-ol] + O yielded a mass density ([1]; 298.15 K, x1 = 0.017) of 993.26 ± 3 kg/m3, a mass density ([1]; 298.15 K, x1 = 0.037) of 986.46 ± 3 kg/m3 and a mass density ([1]; 298.15 K, x1 = 0.061) of 976.33 ± 3 kg/m3. It also gave a mass density ([1]; 298.15 K, x1 = 0.092) of 967.1 ± 3 kg/m3, a mass density ([1]; 298.15 K, x1 = 0.132) of 948.1 ± 10 kg/m3 and a mass density ([1]; 298.15 K, x1 = 1) of 896.16 ± 1 kg/m3. For the same compound, the viscosity ([1]; 298.15 K, x1 = 0.017) was 1.284 ± 0.035 mPa·s, the viscosity ([1]; 298.15 K, x1 = 0.037) was 1.849 ± 0.045 mPa·s and the viscosity ([1]; 298.15 K, x1 = 0.061) was 2.45 ± 0.056 mPa·s. For the same compound, the viscosity ([1]; 298.15 K, x1 = 0.092) was 2.998 ± 0.069 mPa·s, the viscosity ([1]; 298.15 K, x1 = 0.132) was 3.918 ± 0.089 mPa·s and the viscosity ([1]; 298.15 K, x1 = 1) was 2.782 ± 0.065 mPa·s. For the same compound, the mass density ([1]; 303.15 K, x1 = 0.017) was 990.82 ± 3 kg/m3, the mass density ([1]; 303.15 K, x1 = 0.037) was 982.92 ± 3 kg/m3 and the mass density ([1]; 303.15 K, x1 = 0.061) was 974.23 ± 3 kg/m3. The mass density ([1]; 303.15 K, x1 = 0.092) was 964.31 ± 3 kg/m3, the mass density ([1]; 303.15 K, x1 = 0.132) was 944.74 ± 10 kg/m3 and the mass density ([1]; 303.15 K, x1 = 1) was 892.74 ± 1 kg/m3. It also gave a viscosity ([1]; 303.15 K, x1 = 0.017) of 1.131 ± 0.033 mPa·s, a viscosity ([1]; 303.15 K, x1 = 0.037) of 1.622 ± 0.041 mPa·s and a viscosity ([1]; 303.15 K, x1 = 0.061) of 2.161 ± 0.051 mPa·s. The viscosity ([1]; 303.15 K, x1 = 0.092) was 2.635 ± 0.061 mPa·s, the viscosity ([1]; 303.15 K, x1 = 0.132) was 3.394 ± 0.078 mPa·s and the viscosity ([1]; 303.15 K, x1 = 1) was 2.499 ± 0.059 mPa·s. For the same compound, the mass density ([1]; 308.15 K, x1 = 0.017) was 988.89 ± 3 kg/m3, the mass density ([1]; 308.15 K, x1 = 0.037) was 980.38 ± 3 kg/m3 and the mass density ([1]; 308.15 K, x1 = 0.061) was 971.37 ± 3 kg/m3. It also gave a mass density ([1]; 308.15 K, x1 = 0.092) of 961.45 ± 3 kg/m3, a mass density ([1]; 308.15 K, x1 = 0.132) of 941.59 ± 10 kg/m3 and a mass density ([1]; 308.15 K, x1 = 1) of 888.88 ± 1 kg/m3. It also gave a viscosity ([1]; 308.15 K, x1 = 0.017) of 0.9936 ± 0.03 mPa·s, a viscosity ([1]; 308.15 K, x1 = 0.037) of 1.465 ± 0.038 mPa·s and a viscosity ([1]; 308.15 K, x1 = 0.061) of 1.916 ± 0.046 mPa·s. It also gave a viscosity ([1]; 308.15 K, x1 = 0.092) of 2.334 ± 0.054 mPa·s, a viscosity ([1]; 308.15 K, x1 = 0.132) of 2.921 ± 0.068 mPa·s and a viscosity ([1]; 308.15 K, x1 = 1) of 2.206 ± 0.053 mPa·s. The mass density ([1]; 313.15 K, x1 = 0.017) was 985.94 ± 3 kg/m3, the mass density ([1]; 313.15 K, x1 = 0.037) was 977.64 ± 3 kg/m3 and the mass density ([1]; 313.15 K, x1 = 0.061) was 968.64 ± 3 kg/m3. It also gave a mass density ([1]; 313.15 K, x1 = 0.092) of 958.48 ± 3 kg/m3, a mass density ([1]; 313.15 K, x1 = 0.132) of 937.57 ± 10 kg/m3 and a mass density ([1]; 313.15 K, x1 = 1) of 884.29 ± 1 kg/m3. The viscosity ([1]; 313.15 K, x1 = 0.017) was 0.8871 ± 0.029 mPa·s, the viscosity ([1]; 313.15 K, x1 = 0.037) was 1.302 ± 0.036 mPa·s and the viscosity ([1]; 313.15 K, x1 = 0.061) was 1.754 ± 0.043 mPa·s. It also gave a viscosity ([1]; 313.15 K, x1 = 0.092) of 2.054 ± 0.049 mPa·s, a viscosity ([1]; 313.15 K, x1 = 0.132) of 2.539 ± 0.059 mPa·s and a viscosity ([1]; 313.15 K, x1 = 1) of 1.946 ± 0.048 mPa·s.
For `CCCCOCCO` [2-butoxyethan-1-ol], the viscosity ([2]; 298.15 K) was 2.782 ± 0.065 mPa·s, the mass density ([2]; 298.15 K) was 896.16 ± 1 kg/m3 and the viscosity ([2]; 303.15 K) was 2.499 ± 0.059 mPa·s. For the same compound, the mass density ([2]; 303.15 K) was 892.74 ± 1 kg/m3, the viscosity ([2]; 308.15 K) was 2.206 ± 0.053 mPa·s and the mass density ([2]; 308.15 K) was 888.88 ± 1 kg/m3. The viscosity ([2]; 313.15 K) was 1.946 ± 0.048 mPa·s and the mass density ([2]; 313.15 K) was 884.29 ± 1 kg/m3.
